# Tests used:
# [1] = Metabolic stability, rat liver S9; assay type: in vitro ADME; settings: pooled liver S9 fraction, Table S4, n=1, read-out: t1/2 rat liver S9
# Procedure: (§1) For the evaluation of combined phase I and phase II metabolic stability, the compound (1 μM) was incubated with 1 mg/mL pooled liver S9 fraction from the respective species (Xenotech), […]
# (§2) 2 mM NADPH, 1 mM UDPGA, 10 mM MgCl2, 5 mM GSH and 0.1 mM PAPS at 37 °C for […]
# (§3) 0, 5, 15, 30 or 60 min. The metabolic stability of Testosterone (1 μM) and verapamil (1 μM) […]
# (§4) were determined in parallel to confirm the enzymatic activity of the S9 fraction. The […]
# (§5) incubation was stopped by precipitation of S9 enzymes with 2 volumes of cold acetonitrile […]
# (§6) containing internal standard (750 nM Diphenhydramine). Samples were stored on ice for 10 […]
# (§7) min and precipitated protein was removed by centrifugation (10 min, 4 °C, 17,000 g).
# (§8) Concentration of the remaining test compound at the different time points was analyzed by […]
# (§9) LC-MS/MS (TSQ Quantum Access MAX, Thermo Fisher, Dreieich, Germany) and used to […]
# (§10) determine half-life (t1/2). Stability of compound 4 in further S9 fractions are summarized in […]
# (§11) Table S4. Metabolic stability studies in various S9 fractions. […]
# [2] = Metabolic stability, guinea pig liver S9; assay type: in vitro ADME; settings: pooled liver S9 fraction, Table S4, read-out: t1/2 guinea pig liver S9
# Procedure: subtraction and plotted using GraphPad Prism 8.4.2 (GraphPad Software, San Diego, CA, […]
# USA). Solubility (S) was determined based on the First X value of AUC function using a […]
# as §1, §2, §3, §4, §5, §6, §7, §8, §9, §10, §11
# guinea pig liver S9 92.5 ± 5.4
# 5.6. Permeability studies
# Permeability of compound 4 and 17 was assessed in vitro with Calu-3 HTB-55 cell line (ATCC). […]
# [3] = Mouse MTD, acute single dose toxicity i.v.; assay type: in vivo; settings: mice
# Procedure: Pyruvate. Passages between 35 and 55 were used, medium was changed every 2-3 days. For experiments, cells were harvested using Trypsin/EDTA and seeded on Transwell® inserts 3460 at a density of 1∙105 cells. Cells were grown at air-liquid interface beginning day 3 and used for Transport studies on day 11-13. TEER values exceeded 300 Ω∙cm2 before beginning Transport studies. For experiments, Krebs-Ringer solution with 1% BSA was used and cells were accommodated to the buffer for at least 1h with no decrease in TEER. 200 µL samples were taken in regular intervals from the apical side (time intervals 0, 20, 40, 60, 90, 120, 180, 240 minutes) and replenished with fresh buffer. TEER was monitored during the experiment and epithelial barriers were considered compromised if the TEER fell below 300 during 4 h of experiment duration. […] 50 µL of sample was mixed with 150 µL of ice-cold acetonitrile containing internal standard diphenhydramine (1 µM) and the concentration of compound was analyzed with LC-MS/MS. […]
# The in vivo tolerability study was performed on ten-week old female C57BL/6N mice. […] Mice behavior and body weight were monitored over 24 h period. At 24 h post-injection, the mice were euthanized, lungs were collected, and the blood leukocytes as well as the absolute leukocytes (including segented, lymphocytes, monocytes and eosinophiles) were counted to access the tolerability. […]
smiles,measurement,setting,value
FC(F)(F)c1cc(NCc2cn(-c3ccc(Oc4ccccc4)cc3)nn2)ccn1 [Compound 4],half-life at 1 μM,[1],24.2 min
same,half-life at 1 μM,[2],92.5 ± 5.4 min
same,test dosing up to which no test item related clinical symptoms were observed,"[3]; i.v. single dose, after 24 h",≥ 60 mg/kg
same,MTD at 24 h,"[3]; mouse, in vivo, iv, i.v., read-out: dose up to which well tolerated (maximum tolerated dose study)",≥ 60 mg/kg

# From article PMC8224453, “A New PqsR Inverse Agonist Potentiates Tobramycin Efficacy to Eradicate Pseudomonas aeruginosa Biofilms” (Advanced Science, 2021)
